Results taken from PubChem BioAssay (NCI).
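Growth conditions: 96-well plates. Treatment: test compound, 48 hours, 5 concentrations. Analysis: linear interpolation between bracketing concentrations; unreached endpoints set to highest concentration. TGI denotes the concentration required for complete inhibition of growth.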

Experiments:
Experiment in all cases: inhibition of tumour cell growth, NCI panel, 48 h
TK-10 renal = tested on: TK-10 renal
SK-OV-3 ovarian = tested on: SK-OV-3 ovarian
M14 melanoma = tested on: M14 melanoma
HCT-116 colon = tested on: HCT-116 colon
SK-MEL-2 melanoma = tested on: SK-MEL-2 melanoma
786-0 renal = tested on: 786-0 renal
SF-295 CNS = tested on: SF-295 CNS
NCI-H226 lung = tested on: NCI-H226 lung
OVCAR-4 ovarian = tested on: OVCAR-4 ovarian
MALME-3M melanoma = tested on: MALME-3M melanoma
OVCAR-5 ovarian = tested on: OVCAR-5 ovarian
SNB-19 CNS = tested on: SNB-19 CNS
MDA-MB-435 = tested on: MDA-MB-435
EKVX NSCLC = tested on: EKVX NSCLC
SR leukemia = tested on: SR leukemia
HT29 colon = tested on: HT29 colon
HOP-62 NSCLC = tested on: HOP-62 NSCLC
MDA-MB-231 breast = tested on: MDA-MB-231 breast
MDA-N = tested on: MDA-N
UO-31 renal = tested on: UO-31 renal
A549 NSCLC = tested on: A549 NSCLC
NCI/ADR-RES ovarian = tested on: NCI/ADR-RES ovarian
HCC-2998 colon = tested on: HCC-2998 colon
IGROV1 ovarian = tested on: IGROV1 ovarian
CCRF-CEM leukemia = tested on: CCRF-CEM leukemia
T-47D breast = tested on: T-47D breast
RPMI-8226 leukemia = tested on: RPMI-8226 leukemia
HCT-15 colon = tested on: HCT-15 colon
SK-MEL-28 melanoma = tested on: SK-MEL-28 melanoma
OVCAR-8 ovarian = tested on: OVCAR-8 ovarian
SNB-75 CNS = tested on: SNB-75 CNS
SW-620 colon = tested on: SW-620 colon
ACHN renal = tested on: ACHN renal
HS 578T breast = tested on: HS 578T breast
SF-268 CNS = tested on: SF-268 CNS
UACC-257 melanoma = tested on: UACC-257 melanoma
SK-MEL-5 melanoma = tested on: SK-MEL-5 melanoma
NCI-H23 lung = tested on: NCI-H23 lung
MCF7 breast = tested on: MCF7 breast
SN12C renal = tested on: SN12C renal
A498 renal = tested on: A498 renal
U251 CNS = tested on: U251 CNS
K-562 leukemia = tested on: K-562 leukemia
RXF 393 renal = tested on: RXF 393 renal
NCI-H522 lung = tested on: NCI-H522 lung
DU-145 prostate = tested on: DU-145 prostate
HOP-92 NSCLC = tested on: HOP-92 NSCLC
NCI-H460 lung = tested on: NCI-H460 lung
CAKI-1 renal = tested on: CAKI-1 renal
UACC-62 melanoma = tested on: UACC-62 melanoma
PC-3 prostate = tested on: PC-3 prostate
COLO 205 colon = tested on: COLO 205 colon
SF-539 CNS = tested on: SF-539 CNS
MOLT-4 leukemia = tested on: MOLT-4 leukemia
LOX IMVI melanoma = tested on: LOX IMVI melanoma
HL-60(TB) leukemia = tested on: HL-60(TB) leukemia

For `O=S1(=O)OCCOS(=O)(=O)C1Cc1cccc2ccccc12`, the TGI (TK-10 renal) was greater than 100 µM, the TGI (SK-OV-3 ovarian) was 70.7 µM and the TGI (M14 melanoma) was 54.9 µM. For the same compound, the TGI (HCT-116 colon) was 48.3 µM, the TGI (SK-MEL-2 melanoma) was greater than 100 µM and the TGI (786-0 renal) was 54.8 µM. It also gave a TGI (SF-295 CNS) greater than 100 µM, a TGI (NCI-H226 lung) of 36.3 µM and a TGI (OVCAR-4 ovarian) of 47 µM. It also gave a TGI (MALME-3M melanoma) of 31.2 µM, a TGI (OVCAR-5 ovarian) of 60.9 µM and a TGI (SNB-19 CNS) of 87.3 µM. It also gave a TGI (MDA-MB-435) of 32 µM, a TGI (EKVX NSCLC) of 80.3 µM and a TGI (SR leukemia) of 64.9 µM. The TGI (HT29 colon) was 71.4 µM, the TGI (HOP-62 NSCLC) was 49.1 µM and the TGI (MDA-MB-231 breast) was 46.6 µM. It also gave a TGI (MDA-N) of 59.3 µM, a TGI (UO-31 renal) of 48.8 µM and a TGI (A549 NSCLC) greater than 100 µM. For the same compound, the TGI (NCI/ADR-RES ovarian) was 54.8 µM, the TGI (HCC-2998 colon) was 43 µM and the TGI (IGROV1 ovarian) was 28.6 µM. The TGI (CCRF-CEM leukemia) was 40.5 µM, the TGI (T-47D breast) was greater than 100 µM and the TGI (RPMI-8226 leukemia) was 85.3 µM. For the same compound, the TGI (HCT-15 colon) was 87.1 µM, the TGI (SK-MEL-28 melanoma) was 21.5 µM and the TGI (OVCAR-8 ovarian) was 34.7 µM. It also gave a TGI (SNB-75 CNS) greater than 100 µM, a TGI (SW-620 colon) greater than 100 µM and a TGI (ACHN renal) of 99.6 µM. For the same compound, the TGI (HS 578T breast) was 84.9 µM, the TGI (SF-268 CNS) was 57.8 µM and the TGI (UACC-257 melanoma) was 34.2 µM. For the same compound, the TGI (SK-MEL-5 melanoma) was 28.2 µM, the TGI (NCI-H23 lung) was 79.5 µM and the TGI (MCF7 breast) was 37.6 µM. The TGI (SN12C renal) was 62.2 µM, the TGI (A498 renal) was 28.9 µM and the TGI (U251 CNS) was 40.7 µM. The TGI (K-562 leukemia) was 38.2 µM, the TGI (RXF 393 renal) was 12 µM and the TGI (NCI-H522 lung) was 47.8 µM. The TGI (DU-145 prostate) was 31.1 µM, the TGI (HOP-92 NSCLC) was 56.6 µM and the TGI (NCI-H460 lung) was 35.4 µM. It also gave a TGI (CAKI-1 renal) greater than 100 µM, a TGI (UACC-62 melanoma) of 57.2 µM and a TGI (PC-3 prostate) greater than 100 µM. The TGI (COLO 205 colon) was 29.2 µM, the TGI (SF-539 CNS) was 39.9 µM and the TGI (MOLT-4 leukemia) was 65.9 µM. It also gave a TGI (LOX IMVI melanoma) of 55.4 µM and a TGI (HL-60(TB) leukemia) of 29.9 µM.
